Results on 18 compounds are retold here after US20260078120A1, “SUBSTITUTED PYRIDOPYRIMIDINONES” (MIRATI THERAPEUTICS, INC., priority 2022, published 2026).

Test [1] deals with SKBR3 (PI3Kα wild type) cells. Nature of the test: CellTiter-Glo 2.0 luminescent cell viability assay, 72 hours, SKBR3 cells. The test is classed as cell-based. The note with it: Homo sapiens, SK-BR-3, 72 h, SKBR3 (PI3Kα wild type) cells, CellTiter-Glo, approximately 72 hours; read-out: SKBR3 (WT) Viability IC50. The method in brief: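 Viability measured via CTG luminescence following roughly 72 hours of compound exposure at 37° C. Dosing used a 10 um starting concentration diluted 1:4 over 10 points; percent-of-vehicle data fitted with a variable-slope four-parameter model for IC50.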
(In general: In ATP-based viability assays light output follows the ATP content of the culture.)

The subject of test [2] is T47D (PI3Kα H1047R mutant) cells. Nature of the test: CellTiter-Glo 2.0 luminescent cell viability assay, 72 hours, T47D cells. It is filed as cell-based. The settings on record: Homo sapiens, T47D, 72 h, T47D (PI3Kα H1047R mutant) cells, CellTiter-Glo, approximately 72 hours; read-out: T47D (H1047R mutant) Viability IC50. The method in brief: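 Cells seeded at 1000 per well overnight were dosed with a 10-concentration, 1:4 series starting at 10 µM and incubated ~72 h at 37° C. Viability was read by CellTiter-Glo 2.0 luminescence after 30 min at room temperature. IC50 came from four-parameter fits of percent vehicle control.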

By IC50 is commonly meant the concentration that inhibits the measured activity by half.

Regarding `Cc1cc([C@@H](C)Nc2ccccc2C(=O)O)c2nc(NCC3COC3)c(C)c(=O)n2c1` [Example 11-205, (R)-2-((1-(3,7-dimethyl-2-((oxetan-3-ylmethyl)amino)-4-oxo-4H-pyrido[1,2-a]pyrimidin-9-yl)ethyl)amino)benzoic acid], the IC50 in test [1] is over 10000 nM; in test [2], 1560 nM.
The corresponding values for `Cc1cc([C@@H](C)Nc2ccc(Cl)nc2C(=O)O)c2nc(NCC3CC3)c(C#N)c(=O)n2c1` [Example 11-206, (R)-6-chloro-3-((1-(3-cyano-2-((cyclopropylmethyl)amino)-7-methyl-4-oxo-4H-pyrido[1,2-a]pyrimidin-9-yl)ethyl)amino)picolinic acid] are over 10000 nM and 132 nM.
Regarding `Cc1cc([C@@H](C)Nc2ccccc2C(=O)O)c2nc(NCC3CC3)c(C)c(=O)n2c1` [Example 11-207, (R)-2-((1-(2-((cyclopropylmethyl)amino)-3,7-dimethyl-4-oxo-4H-pyrido[1,2-a]pyrimidin-9-yl)ethyl)amino)benzoic acid], the values for the IC50 in test [1] and in test [2] were over 10000 nM and 342 nM, respectively.
In the case of `Cc1cc([C@@H](C)Nc2ccccc2C(=O)O)c2nc(N3CCC4(CC3)COC4)c(C#N)c(=O)n2c1` [Example 11-208, (R)-2-((1-(3-cyano-7-methyl-4-oxo-2-(2-oxa-7-azaspiro[3.5]nonan-7-yl)-4H-pyrido[1,2-a]pyrimidin-9-yl)ethyl)amino)benzoic acid], the IC50 was over 10000 nM in test [1] and 469 nM in test [2].
On to `Cc1cc([C@@H](C)Nc2ccccc2C(=O)O)c2nc(N3CCC[C@@H](C(F)(F)F)C3)c(C#N)c(=O)n2c1` [Example 11-209, 2-(((R)-1-(3-cyano-7-methyl-4-oxo-2-((R)-3-(trifluoromethyl)piperidin-1-yl)-4H-pyrido[1,2-a]pyrimidin-9-yl)ethyl)amino)benzoic acid], for which the concentration for half-maximal inhibition (IC50) was over 10000 nM in test [1] and 439 nM in test [2].
The matching figures for `Cc1cc([C@@H](C)Nc2ccccc2C(=O)O)c2nc(N3CCC[C@H](C(F)(F)F)C3)c(C#N)c(=O)n2c1` [Example 11-210, 2-(((R)-1-(3-cyano-7-methyl-4-oxo-2-((S)-3-(trifluoromethyl)piperidin-1-yl)-4H-pyrido[1,2-a]pyrimidin-9-yl)ethyl)amino)benzoic acid]: over 10000 nM and 361 nM.
Turning to `Cc1cc([C@@H](C)Nc2ccccc2C(=O)O)c2nc(N3CCC[C@@H](C(F)(F)F)C3)c(C)c(=O)n2c1` [Example 11-211, 2-(((R)-1-(3,7-dimethyl-4-oxo-2-((R)-3-(trifluoromethyl)piperidin-1-yl)-4H-pyrido[1,2-a]pyrimidin-9-yl)ethyl)amino)benzoic acid], the values for the IC50 in test [1] and in test [2] were over 10000 nM and 520 nM, respectively.
Turning to `Cc1cc([C@@H](C)Nc2ccccc2C(=O)O)c2nc(N3CCC[C@H](C(F)(F)F)C3)c(C)c(=O)n2c1` [Example 11-212, 2-(((R)-1-(3,7-dimethyl-4-oxo-2-((S)-3-(trifluoromethyl)piperidin-1-yl)-4H-pyrido[1,2-a]pyrimidin-9-yl)ethyl)amino)benzoic acid], the IC50 in test [1] is over 10000 nM; in test [2], 1360 nM.
The matching figures for `Cc1cc([C@@H](C)Nc2ccccc2C(=O)O)c2nc(N3CCC4(CC3)C(F)(F)C4(F)F)c(C)c(=O)n2c1` [Example 11-213, (R)-2-((1-(3,7-dimethyl-4-oxo-2-(1,1,2,2-tetrafluoro-6-azaspiro[2.5]octan-6-yl)-4H-pyrido[1,2-a]pyrimidin-9-yl)ethyl)amino)benzoic acid]: over 10000 nM and 257 nM.
The matching figures for `Cc1cc([C@@H](C)Nc2ccccc2C(=O)O)c2nc(N3C4CCC3c3ccccc34)c(C#N)c(=O)n2c1` [Example 11-214, 2-(((1R)-1-(3-cyano-7-methyl-4-oxo-2-(1,2,3,4-tetrahydro-1,4-epiminonaphthalen-9-yl)-4H-pyrido[1,2-a]pyrimidin-9-yl)ethyl)amino)benzoic acid]: over 10000 nM and 262 nM.
The corresponding values for `Cc1cc([C@@H](C)Nc2ccccc2C(=O)O)c2nc(N3C4CCC3c3ccccc34)c(C)c(=O)n2c1` [Example 11-215, 2-(((1R)-1-(3,7-dimethyl-4-oxo-2-(1,2,3,4-tetrahydro-1,4-epiminonaphthalen-9-yl)-4H-pyrido[1,2-a]pyrimidin-9-yl)ethyl)amino)benzoic acid] are over 10000 nM and 303 nM.
`Cc1cc([C@@H](C)Nc2ccccc2C(=O)O)c2nc(N3CCn4c(nnc4C(F)(F)F)C3)c(C#N)c(=O)n2c1` [Example 11-216, (R)-2-((1-(3-cyano-7-methyl-4-oxo-2-(3-(trifluoromethyl)-5,6-dihydro-[1,2,4]triazolo[4,3-a]pyrazin-7(8H)-yl)-4H-pyrido[1,2-a]pyrimidin-9-yl)ethyl)amino)benzoic acid]: the IC50 in test [1] and in test [2] was over 10000 nM each time.
For `Cc1cc([C@@H](C)Nc2ccccc2C(=O)O)c2nc(N3CCn4c(nnc4C(F)(F)F)C3)c(C)c(=O)n2c1` [Example 11-217, (R)-2-((1-(3,7-dimethyl-4-oxo-2-(3-(trifluoromethyl)-5,6-dihydro-[1,2,4]triazolo[4,3-a]pyrazin-7(8H)-yl)-4H-pyrido[1,2-a]pyrimidin-9-yl)ethyl)amino)benzoic acid], the IC50 in test [1] and in test [2] was over 10000 nM each time.
Consider `Cc1cc([C@@H](C)Nc2ccccc2C(=O)O)c2nc(N3CCC4(CC3)CC4(F)F)c(C#N)c(=O)n2c1` [Example 11-218, (R)-2-((1-(3-cyano-2-(1,1-difluoro-6-azaspiro[2.5]octan-6-yl)-7-methyl-4-oxo-4H-pyrido[1,2-a]pyrimidin-9-yl)ethyl)amino)benzoic acid], for which the half-inhibitory concentration (IC50) in test [1] was over 10000 nM; in test [2], 177 nM.
`Cc1cc([C@@H](C)Nc2ccccc2C(=O)O)c2nc(N3CCC4(CC3)CC4(F)F)c(C)c(=O)n2c1` [Example 11-219, (R)-2-((1-(2-(1,1-difluoro-6-azaspiro[2.5]octan-6-yl)-3,7-dimethyl-4-oxo-4H-pyrido[1,2-a]pyrimidin-9-yl)ethyl)amino)benzoic acid]: the figures for the IC50 in test [1] and in test [2] were over 10000 nM and 495 nM, respectively.
The matching figures for `Cc1cc([C@@H](C)Nc2ccccc2C(=O)O)c2nc(N3CCC4(CC3)CC4)c(C#N)c(=O)n2c1` [Example 11-220, (R)-2-((1-(3-cyano-7-methyl-4-oxo-2-(6-azaspiro[2.5]octan-6-yl)-4H-pyrido[1,2-a]pyrimidin-9-yl)ethyl)amino)benzoic acid]: over 10000 nM and 117 nM.
Take `Cc1cc([C@@H](C)Nc2ccccc2C(=O)O)c2nc(N3CCC4(CC3)CC4)c(C)c(=O)n2c1` [Example 11-221, (R)-2-((1-(3,7-dimethyl-4-oxo-2-(6-azaspiro[2.5]octan-6-yl)-4H-pyrido[1,2-a]pyrimidin-9-yl)ethyl)amino)benzoic acid]: the IC50 is over 10000 nM in test [1] and 255 nM in test [2].
In the case of `Cc1cc([C@@H](C)Nc2ccccc2C(=O)O)c2nc(N3CC4C(C3)C4(F)F)c(C)c(=O)n2c1` (stereo partly drawn) [Example 11-222, 2-(((1R)-1-(2-(6,6-difluoro-3-azabicyclo[3.1.0]hexan-3-yl)-3,7-dimethyl-4-oxo-4H-pyrido[1,2-a]pyrimidin-9-yl)ethyl)amino)benzoic acid], the IC50 was over 10000 nM in test [1] and 156 nM in test [2].
